ChEMBL document CHEMBL3885881, “DrugMatrix”

Species: Rattus norvegicus
Experiment: DrugMatrix - Regimen: Daily Repeat
Assay type: toxicity, organism-based, Sprague-Dawley
Parameters: regimen Daily Repeat, gender Male, age 6-8 weeks
Details: in vivo, po, route oral GAVAGE, vehicle .5 % CMC; for ABSOLUTE BASOPHIL / ABSOLUTE EOSINOPHIL / ABSOLUTE LYMPHOCYTE / ABSOLUTE MONOCYTE / ABSOLUTE SEGMENTED NEUTROPHIL / BASOPHIL / EOSINOPHIL / ERYTHROCYTE COUNT / HEMATOCRIT / HEMOGLOBIN / LEUKOCYTE COUNT / LYMPHOCYTE / MEAN CORPUSCULAR HEMOGLOBIN / MEAN CORPUSCULAR HEMOGLOBIN CONCENTRATION / MEAN CORPUSCULAR VOLUME / MONOCYTE / NEUTROPHIL / NUCLEATED RED BLOOD CELLS / PLATELET COUNT: tissue Blood; for ALANINE AMINOTRANSFERASE / ALBUMIN / ALKALINE PHOSPHATASE / ASPARTATE AMINOTRANSFERASE / BLOOD UREA NITROGEN / CARBON DIOXIDE / CHLORIDE / CHOLESTEROL / CREATINE PHOSPHOKINASE / CREATININE / GLUCOSE / LACTATE DEHYDROGENASE / LIPASE / PHOSPHORUS / POTASSIUM / SODIUM / TOTAL BILIRUBIN / TOTAL PROTEIN / URIC ACID: tissue Plasma
[1] = 0 mg/kg, 72 h, dose level Control, time 3 day
[2] = 0 mg/kg, 120 h, dose level Control, time 5 day
[3] = 100 mg/kg, 72 h, dose level Low, time 3 day

In the case of CN/C(=N/CCSCc1nc[nH]c1C)NC#N [CIMETIDINE], the “ABSOLUTE BASOPHIL” value [1] is reported as 0 CELLS/uL, the “ABSOLUTE EOSINOPHIL” value [1] is reported as 0 CELLS/uL and the “ABSOLUTE LYMPHOCYTE” value [1] is reported as 12191.17 CELLS/uL. The “ABSOLUTE MONOCYTE” value [1] was 183.17 CELLS/uL, the “ABSOLUTE SEGMENTED NEUTROPHIL” value [1] was 1192.33 CELLS/uL and the BASOPHIL [1] was 0%. The EOSINOPHIL [1] was 0%, the “ERYTHROCYTE COUNT” value [1] was 5.51 x10E6/uL and the HEMATOCRIT [1] was 35.45%. The HEMOGLOBIN [1] was 13.82 G/DL, the “LEUKOCYTE COUNT” value [1] was 13.57 x10E3/uL and the LYMPHOCYTE [1] was 89.83%. For the same molecule, the “MEAN CORPUSCULAR HEMOGLOBIN” value [1] was 25.1 pg, the “MEAN CORPUSCULAR HEMOGLOBIN CONCENTRATION” value [1] was 38.98 G/DL and the “MEAN CORPUSCULAR VOLUME” value [1] was 64.42 fL. The MONOCYTE [1] was 1.33%, the NEUTROPHIL [1] was 8.83% and the “NUCLEATED RED BLOOD CELLS” value [1] was 0 /100WBC. For the same molecule, the “PLATELET COUNT” value [1] was 1118.17 x10E3/uL, the “ALANINE AMINOTRANSFERASE” value [1] was 55 u/L and the ALBUMIN [1] was 4.15 G/DL. For the same molecule, the “ALKALINE PHOSPHATASE” value [1] was 449.5 u/L, the “ASPARTATE AMINOTRANSFERASE” value [1] was 112.83 u/L and the “BLOOD UREA NITROGEN” value [1] was 17.33 mg/dL. For the same molecule, the “CARBON DIOXIDE” value [1] was 29.5 mmol/L, the CHLORIDE [1] was 101 MEQ/L and the CHOLESTEROL [1] was 70 mg/dL. For the same molecule, the “CREATINE PHOSPHOKINASE” value [1] was 1325.83 u/L, the CREATININE [1] was 0.18 mg/dL and the GLUCOSE [1] was 171.5 mg/dL. The “LACTATE DEHYDROGENASE” value [1] was 386 u/L, the LIPASE [1] was 10 u/L and the PHOSPHORUS [1] was 11.57 mg/dL. For the same molecule, the POTASSIUM [1] was 6.21 MEQ/L, the SODIUM [1] was 141.65 MEQ/L and the “TOTAL BILIRUBIN” value [1] was 0.15 mg/dL. For the same molecule, the “TOTAL PROTEIN” value [1] was 5.75 G/DL, the “URIC ACID” value [1] was 1.28 mg/dL and the “ABSOLUTE BASOPHIL” value [2] was 0 CELLS/uL. The “ABSOLUTE EOSINOPHIL” value [2] was 138.17 CELLS/uL, the “ABSOLUTE LYMPHOCYTE” value [2] was 13283.17 CELLS/uL and the “ABSOLUTE MONOCYTE” value [2] was 303.83 CELLS/uL. For the same molecule, the “ABSOLUTE SEGMENTED NEUTROPHIL” value [2] was 1308.17 CELLS/uL, the BASOPHIL [2] was 0% and the EOSINOPHIL [2] was 1%. For the same molecule, the “ERYTHROCYTE COUNT” value [2] was 5.32 x10E6/uL, the HEMATOCRIT [2] was 33.8% and the HEMOGLOBIN [2] was 13.63 G/DL. The “LEUKOCYTE COUNT” value [2] was 15.03 x10E3/uL, the LYMPHOCYTE [2] was 88.33% and the “MEAN CORPUSCULAR HEMOGLOBIN” value [2] was 25.68 pg. For the same molecule, the “MEAN CORPUSCULAR HEMOGLOBIN CONCENTRATION” value [2] was 40.35 G/DL, the “MEAN CORPUSCULAR VOLUME” value [2] was 63.67 fL and the MONOCYTE [2] was 1.83%. For the same molecule, the NEUTROPHIL [2] was 8.83%, the “NUCLEATED RED BLOOD CELLS” value [2] was 0 /100WBC and the “PLATELET COUNT” value [2] was 1097.5 x10E3/uL. For the same molecule, the “ALANINE AMINOTRANSFERASE” value [2] was 54.5 u/L, the ALBUMIN [2] was 4.27 G/DL and the “ALKALINE PHOSPHATASE” value [2] was 337 u/L. The “ASPARTATE AMINOTRANSFERASE” value [2] was 94.67 u/L, the “BLOOD UREA NITROGEN” value [2] was 17 mg/dL and the “CARBON DIOXIDE” value [2] was 28.33 mmol/L. For the same molecule, the CHLORIDE [2] was 101.5 MEQ/L, the CHOLESTEROL [2] was 71.33 mg/dL and the “CREATINE PHOSPHOKINASE” value [2] was 628.17 u/L. The CREATININE [2] was 0.19 mg/dL, the GLUCOSE [2] was 177.83 mg/dL and the “LACTATE DEHYDROGENASE” value [2] was 500.5 u/L. For the same molecule, the LIPASE [2] was 9.5 u/L, the PHOSPHORUS [2] was 12.3 mg/dL and the POTASSIUM [2] was 5.63 MEQ/L. For the same molecule, the SODIUM [2] was 143.03 MEQ/L, the “TOTAL BILIRUBIN” value [2] was 0.2 mg/dL and the “TOTAL PROTEIN” value [2] was 6.02 G/DL. The “URIC ACID” value [2] was 1.5 mg/dL, the “ABSOLUTE BASOPHIL” value [3] was 0 CELLS/uL and the “ABSOLUTE EOSINOPHIL” value [3] was 0 CELLS/uL. For the same molecule, the “ABSOLUTE LYMPHOCYTE” value [3] was 13567.33 CELLS/uL, the “ABSOLUTE MONOCYTE” value [3] was 279 CELLS/uL and the “ABSOLUTE SEGMENTED NEUTROPHIL” value [3] was 1153.67 CELLS/uL. The BASOPHIL [3] was 0%, the EOSINOPHIL [3] was 0% and the “ERYTHROCYTE COUNT” value [3] was 5.31 x10E6/uL. The HEMATOCRIT [3] was 33.83%, the HEMOGLOBIN [3] was 13.33 G/DL and the “LEUKOCYTE COUNT” value [3] was 15 x10E3/uL. For the same molecule, the LYMPHOCYTE [3] was 89.67%, the “MEAN CORPUSCULAR HEMOGLOBIN” value [3] was 25.1 pg and the “MEAN CORPUSCULAR HEMOGLOBIN CONCENTRATION” value [3] was 39.4 G/DL. For the same molecule, the “MEAN CORPUSCULAR VOLUME” value [3] was 63.63 fL, the MONOCYTE [3] was 2% and the NEUTROPHIL [3] was 8.33%. For the same molecule, the “NUCLEATED RED BLOOD CELLS” value [3] was 0 /100WBC, the “PLATELET COUNT” value [3] was 1282 x10E3/uL and the “ALANINE AMINOTRANSFERASE” value [3] was 53 u/L. For the same molecule, the ALBUMIN [3] was 4.17 G/DL, the “ALKALINE PHOSPHATASE” value [3] was 373 u/L and the “ASPARTATE AMINOTRANSFERASE” value [3] was 80.33 u/L. The “BLOOD UREA NITROGEN” value [3] was 17.67 mg/dL, the “CARBON DIOXIDE” value [3] was 30 mmol/L and the CHLORIDE [3] was 100.33 MEQ/L. For the same molecule, the CHOLESTEROL [3] was 78.33 mg/dL, the “CREATINE PHOSPHOKINASE” value [3] was 276 u/L and the CREATININE [3] was 0.18 mg/dL. The GLUCOSE [3] was 159.67 mg/dL, the “LACTATE DEHYDROGENASE” value [3] was 157.33 u/L and the LIPASE [3] was 10 u/L. It also gave a PHOSPHORUS [3] of 10.93 mg/dL, a POTASSIUM [3] of 6.04 MEQ/L and an SODIUM [3] of 141.53 MEQ/L. The “TOTAL BILIRUBIN” value [3] was 0.17 mg/dL, the “TOTAL PROTEIN” value [3] was 5.77 G/DL and the “URIC ACID” value [3] was 1.33 mg/dL.
